For eleven molecules, EC50 and CC50 results are on record in patent US20240374598A1, “INHIBITORS OF HUMAN IMMUNODEFICIENCY VIRUS REPLICATION” (ViiV HEALTHCARE UK (NO.5) LIMITED, priority 2018, published 2024).

The term EC50 denotes the concentration at which the effect is half-maximal. A word on the CC50: it is the concentration that lowers cell viability or growth by half. The low end stands for greater toxicity to the cells, the high end for lower toxicity to the cells.

The test system of data set [1] is recombinant NL4-3 virus (nef section replaced with Renilla luciferase gene) in MT-2 cells. The experiment in a line: HIV cell culture assay (antiviral activity, luciferase readout). The data set is classed as cell-based. The note with it: NL43, MT-2 cells infected for 4-5 days with recombinant NL4-3 Renilla luciferase virus. The protocol: HIV cell culture assay—MT-2 cells, 293T cells and the proviral DNA clone of NL4-3 virus were obtained from the NIH AIDS Research and Reference Reagent Program. MT-2 cells were propagated in RPMI 1640 media supplemented with 10% heat inactivated fetal bovine serum (FBS), […]. The 293T cells were propagated in DMEM media supplemented with 10% heat inactivated FBS, […]. A recombinant NL4-3 proviral clone, in which a section of the nef gene was replaced with the Renilla luciferase gene, was used to make the reference virus used in these studies. The recombinant virus was prepared through transfection of the recombinant NL4-3 proviral clone into 293T cells using Transit-293 Transfection Reagent from Mirus Bio LLC (Madison, WI). Supernatent was harvested after 2-3 days and the amount of virus present was titered in MT-2 cells using luciferase enzyme activity as a marker by measuring luciferase enzyme activity. Luciferase was quantitated using the EnduRen Live Cell Substrate from Promega (Madison, WI). Antiviral activities of compounds toward the recombinant virus were quantified by measuring luciferase activity in MT-2 cells infected for 4-5 days with the recombinant virus in the presence of serial dilutions of the compound.
The 50% effective concentration (EC50) was calculated by using the exponential form of the median effect equation where (Fa)=1/[1+(ED50/drug conc.)m] (Johnson VA, Byington RT. Infectivity Assay. In Techniques in HIV Research. ed. Aldovini A, Walker BD. 71-76. New York: Stockton Press. 1990). The 50% inhibitory concentration (EC50) was calculated by using the exponential form of the median effect equation where percent inhibition=1/[1+(EC50/drug concentration)m], where m is a parameter that reflects the slope of the concentration-response curve.

The nature of data set [2]: Compound cytotoxicity, XTT-based colorimetric assay. The data set is classed as cell-based. The note with it: human; uninfected MT2 cells, day 4, XTT assay. The method, then: Compound cytotoxicity and the corresponding CC50 values were determined using the same protocol as described in the antiviral assay except that uninfected cells were used. Cytotoxicity was assessed on day 4 in uninfected MT2 cells by using a XTT (2,3-bis[2-Methoxy-4-nitro-5-sulfophenyl]-2H-tetrazolium-5-carboxyanilide inner salt)-based colorimetric assay (Sigma-Aldrich, St Louis, Mo).
In general terms: Formazan colour is commonly taken as a measure of viable cells.

Bounds are passed on as bounds.

Turning to `CC(C)(C)c1ccc2c(=O)n(-c3ccc(Cl)c4c(NS(=O)(=O)C5CC5)nn(CC(F)F)c34)c([C@H](Cc3cc(F)cc(F)c3)NC(=O)Cn3nc(C(F)F)c4c3C(F)(F)[C@@H]3C[C@H]43)nc2c1` [Example 27, N—((S)-1-(7-(tert-butyl)-3-(4-chloro-3-(cyclopropanesulfonamido)-1-(2,2-difluoroethyl)-1H-indazol-7-yl)-4-oxo-3,4-dihydroquinazolin-2-yl)-2-(3,5-difluorophenyl)ethyl)-2-((3bS,4aR)-3-(difluoromethyl)-5,5-difluoro-3b,4,4a,5-tetrahydro-1H-cyclopropa[3,4]cyclopenta[1,2-c]pyrazol-1-yl)acetamide], the EC50 in data set [1] stood at 0.61 nM. Further, the cytotoxic concentration (CC50) at 4 day in data set [2] is greater than 1000 nM.

In the case of `Cn1nc(NS(C)(=O)=O)c2c(Cl)ccc(-n3c([C@H](Cc4cc(F)cc(F)c4)NC(=O)Cn4nc(C(F)F)c5c4C(F)(F)[C@@H]4C[C@H]54)nc4cc(C(F)(F)C(C)(C)C)ccc4c3=O)c21` [Example 29, N—((S)-1-(3-(4-chloro-1-methyl-3-(methylsulfonamido)-1H-indazol-7-yl)-7-(1,1-difluoro-2,2-dimethylpropyl)-4-oxo-3,4-dihydroquinazolin-2-yl)-2-(3,5-difluorophenyl)ethyl)-2-((3bS,4aR)-3-(difluoromethyl)-5,5-difluoro-3b,4,4a,5-tetrahydro-1H-cyclopropa[3,4]cyclopenta[1,2-c]pyrazol-1-yl)acetamide], the EC50 in data set [1] is 0.115 nM. The molecule also came in with a CC50 at 4 day in data set [2] greater than 1000 nM.

Regarding `COc1nc2nc([C@H](Cc3cc(F)cc(F)c3)NC(=O)Cn3nc(C(F)F)c4c3C(F)(F)C3CC43)n(-c3ccc(Cl)c4c(NS(C)(=O)=O)nn(C)c34)c(=O)c2cc1Cl` (stereo in doubt) [Example 37, N—((S)-1-(6-chloro-3-(4-chloro-1-methyl-3-(methylsulfonamido)-1H-indazol-7-yl)-7-methoxy-4-oxo-3,4-dihydropyrido[2,3-d]pyrimidin-2-yl)-2-(3,5-difluorophenyl)ethyl)-2-((3bS,4aR)-3-(difluoromethyl)-5,5-difluoro-3b,4,4a,5-tetrahydro-1H-cyclopropa[3,4]cyclopenta[1,2-c]pyrazol-1-yl)acetamide], the EC50 in data set [1] worked out at 0.044 nM. For the same molecule, the 50% cytotoxic concentration (CC50) at 4 day in data set [2] is greater than 1000 nM.

With `Cn1nc(NS(C)(=O)=O)c2c(Cl)ccc(-n3c([C@H](Cc4cc(F)cc(F)c4)NC(=O)Cn4nc(C(F)F)c5c4C(F)(F)[C@@H]4C[C@H]54)nc4cc(Br)ccc4c3=O)c21` [Example 1, N—((S)-1-(7-bromo-3-(4-chloro-1-methyl-3-(methylsulfonamido)-1H-indazol-7-yl)-4-oxo-3,4-dihydroquinazolin-2-yl)-2-(3,5-difluorophenyl)ethyl)-2-((3bS,4aR)-3-(difluoromethyl)-5,5-difluoro-3b,4,4a,5-tetrahydro-1H-cyclopropa[3,4]cyclopenta[1,2-c]pyrazol-1-yl)acetamide], the EC50 in data set [1] is 0.046 nM. The same molecule registered a CC50 at 4 day in data set [2] greater than 1000 nM.

Regarding `Cn1nc(NS(C)(=O)=O)c2c(Cl)ccc(-n3c([C@H](Cc4cc(F)cc(F)c4)NC(=O)Cn4nc(C(F)F)c5c4C(F)(F)[C@@H]4C[C@H]54)nc4cc(C5CCCCC5)ccc4c3=O)c21` [Example 34, N—((S)-1-(3-(4-chloro-1-methyl-3-(methylsulfonamido)-H-indazol-7-yl)-7-cyclohexyl-4-oxo-3,4-dihydroquinazoin-2-yl)-2-(3,5-difluorophenyl)ethyl)-2-((3bS,4aR)-3-(difluoromethyl)-5,5-difluoro-3b,4,4a,5-tetrahydro-1H-cyclopropa[3,4]cyclopenta[1,2-c]pyrazol-1-yl)acetamide], in data set [1], the EC50 stood at 0.597 nM. This molecule yielded a CC50 at 4 day in data set [2] greater than 1000 nM.

Regarding `Cn1nc(NS(C)(=O)=O)c2c(Cl)ccc(-n3c([C@H](Cc4cc(F)cc(F)c4)NC(=O)Cn4nc(C(F)F)c5c4C(F)(F)[C@@H]4C[C@H]54)nc4cc(C5CCCC5)ccc4c3=O)c21` [Example 32, N—((S)-1-(3-(4-chloro-1-methyl-3-(methylsulfonamido)-1H-indazol-7-yl)-7-cyclopentyl-4-oxo-3,4-dihydroquinazolin-2-yl)-2-(3,5-difluorophenyl)ethyl)-2-((3bS,4aR)-3-(difluoromethyl)-5,5-difluoro-3b,4,4a,5-tetrahydro-1H-cyclopropa[3,4]cyclopenta[1,2-c]pyrazol-1-yl)acetamide], in data set [1], the EC50 was determined as 0.285 nM. The CC50 at 4 day in data set [2] is greater than 1000 nM.

With `O=C(Cn1nc(C(F)F)c2c1C(F)(F)[C@@H]1C[C@H]21)N[C@@H](Cc1cc(F)cc(F)c1)c1nc2cc(C3CC3)ccc2c(=O)n1-c1ccc(Cl)c2c(NS(=O)(=O)C3CC3)nn(CC(F)F)c12` [Example 31, N—((S)-1-(3-(4-chloro-3-(cyclopropanesulfonamido)-1-(2,2-difluoroethyl)-1H-indazol-7-yl)-7-cyclopropyl-4-oxo-3,4-dihydroquinazolin-2-yl)-2-(3,5-difluorophenyl)ethyl)-2-((3bS,4aR)-3-(difluoromethyl)-5,5-difluoro-3b,4,4a,5-tetrahydro-1H-cyclopropa[3,4]cyclopenta[1,2-c]pyrazol-1-yl)acetamide], the EC50 in data set [1] stood at 0.046 nM. The same molecule had a CC50 at 4 day in data set [2] greater than 1000 nM.

On to `CC(F)(F)c1ccc2c(=O)n(-c3ccc(Cl)c4c(NS(=O)(=O)C5CC5)nn(CC(F)F)c34)c([C@H](Cc3cc(F)cc(F)c3)NC(=O)Cn3nc(C(F)F)c4c3C(F)(F)[C@@H]3C[C@H]43)nc2c1` [Example 18, N—((S)-1-(3-(4-chloro-3-(cyclopropanesulfonamido)-1-(2,2-difluoroethyl)-1H-indazol-7-yl)-7-(1,1-difluoroethyl)-4-oxo-3,4-dihydroquinazolin-2-yl)-2-(3,5-difluorophenyl)ethyl)-2-((3bS,4aR)-3-(difluoromethyl)-5,5-difluoro-3b,4,4a,5-tetrahydro-1H-cyclopropa[3,4]cyclopenta[1,2-c]pyrazol-1-yl)acetamide], for which the EC50 in data set [1] was 0.069 nM. The same molecule returned a CC50 at 4 day in data set [2] greater than 1000 nM.

Regarding `CCc1ccc2c(=O)n(-c3ccc(Cl)c4c(NS(C)(=O)=O)nn(C)c34)c([C@H](Cc3cc(F)cc(F)c3)NC(=O)Cn3nc(C(F)F)c4c3C(F)(F)[C@@H]3C[C@H]43)nc2c1` [Example 16, N—((S)-1-(3-(4-chloro-1-methyl-3-(methylsulfonamido)-1H-indazol-7-yl)-7-ethyl-4-oxo-3,4-dihydroquinazolin-2-yl)-2-(3,5-difluorophenyl)ethyl)-2-((3bS,4aR)-3-(difluoromethyl)-5,5-difluoro-3b,4,4a,5-tetrahydro-1H-cyclopropa[3,4]cyclopenta[1,2-c]pyrazol-1-yl)acetamide], the EC50 in data set [1] came to 0.084 nM. The molecule also gave a CC50 at 4 day in data set [2] greater than 1000 nM.

As to `Cn1nc(NS(C)(=O)=O)c2c(Cl)ccc(-n3c([C@H](Cc4cc(F)cc(F)c4)NC(=O)Cn4nc(C(F)F)c5c4C(F)(F)[C@@H]4C[C@H]54)nc4cc(OCCCF)ccc4c3=O)c21` [Example 9, N—((S)-1-(3-(4-chloro-1-methyl-3-(methylsulfonamido)-1H-indazol-7-yl)-7-(3-fluoropropoxy)-4-oxo-3,4-dihydroquinazolin-2-yl)-2-(3,5-difluorophenyl)ethyl)-2-((3bS,4aR)-3-(difluoromethyl)-5,5-difluoro-3b,4,4a,5-tetrahydro-1H-cyclopropa[3,4]cyclopenta[1,2-c]pyrazol-1-yl)acetamide], the EC50 in data set [1] was determined as 0.049 nM. In data set [2], this molecule had a CC50 at 4 day greater than 1000 nM.

Take `Cn1nc(NS(C)(=O)=O)c2c(Cl)ccc(-n3c([C@H](Cc4cc(F)cc(F)c4)NC(=O)Cn4nc(C(F)F)c5c4C(F)(F)[C@@H]4C[C@H]54)nc4cc(CCC(F)(F)F)ccc4c3=O)c21` [Example 21, N—((S)-1-(3-(4-chloro-1-methyl-3-(methylsulfonamido)-1H-indazol-7-yl)-4-oxo-7-(3,3,3-trifluoropropyl)-3,4-dihydroquinazolin-2-yl)-2-(3,5-difluorophenyl)ethyl)-2-((3bS,4aR)-3-(difluoromethyl)-5,5-difluoro-3b,4,4a,5-tetrahydro-1H-cyclopropa[3,4]cyclopenta[1,2-c]pyrazol-1-yl)acetamide]: the EC50 in data set [1] stood at 0.122 nM. In data set [2], the CC50 at 4 day is greater than 1000 nM.
